The EC50 is the concentration needed to bring the measured effect to its halfway point. For orientation: Emax means the maximal effect, on the per cent scale that the assay sets.

Bridge positions count the residues as written; N and C are the ends. Square brackets hold non-standard residues; d marks the D form. Peptide text beside a SMILES is read from it. * marks the point of attachment. X2 = CN1C[C@H](CSCC(=O)*)C[C@@H]2c3cccc4[nH]cc(c34)C[C@H]21; 4Pal = N[C@@H](Cc1ccncc1)C(=O)O; dDab = NCC[C@@H](N)C(=O)O

The target in experiment [1] is hSSTR2 (Homo sapiens (Human), UniProt P30874). Kind of experiment: Intracellular calcium mobilization assay (FLIPR Calcium 4), hSSTR2.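 On all read-outs here: agonist activity read as intracellular calcium rise in cells expressing human SSTR2, loaded with a calcium-sensitive dye for 60 min at 37 °C, measured by FLIPR.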 Format: cell-based. Conditions: for Emax: read-out: hSSTR2 % Emax ± SEM; for improvement in EC50 over Reference Compound A: Student's t-test, one-tailed, p <0.05. For orientation: Calcium flux is commonly read through the fluorescence of an indicator in the cells.

Experiment [2] addresses hDRD2 (Homo sapiens (Human), UniProt P14416). In words: cell-based. Conditions: for Emax: read-out: hDRD2 % Emax ± SEM.
Method: The ability of select compounds according to the present invention to activate hSSTR2 and hDRD2 was determined by the intracellular calcium mobilization assay using FLIPR Calcium 4 assay kit (Molecular Devices).
Cells expressing hSSTR2 or hDRD2 were plated in 384-well microplates in tissue culture media and incubated for 16-24 hours at 37° C. in a humidified atmosphere with 5% CO2. Medium was replaced by loading buffer containing Hank's buffered saline, 20 mM HEPES, 2.5 mM probenecid and Calcium 4 dye, and the plates were incubated at 37° C. for 60 minutes.

Chain of hSSTR2 (P30874 whole entry): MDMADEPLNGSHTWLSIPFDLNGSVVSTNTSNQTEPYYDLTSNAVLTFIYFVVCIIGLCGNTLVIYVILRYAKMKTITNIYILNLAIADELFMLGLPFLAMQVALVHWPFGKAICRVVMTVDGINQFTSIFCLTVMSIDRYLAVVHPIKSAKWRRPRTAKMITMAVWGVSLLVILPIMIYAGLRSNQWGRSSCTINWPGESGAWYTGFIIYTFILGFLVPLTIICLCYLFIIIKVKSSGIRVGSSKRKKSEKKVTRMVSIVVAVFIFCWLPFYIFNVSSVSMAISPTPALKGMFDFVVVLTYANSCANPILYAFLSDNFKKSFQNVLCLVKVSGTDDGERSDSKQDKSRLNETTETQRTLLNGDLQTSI

Consider `CC(=O)N(CCCNC(CN[C@@H]1CCCCNC(=O)[C@H](Cc2ccc(F)cc2)NC(=O)[C@H]([C@@H](C)O)NC(=O)[C@H](CCCCN)NC(=O)[C@@H](Cc2c[nH]c3ccccc23)NC(=O)[C@H](Cc2ccccc2)NC(=O)[C@H](Cc2ccccc2)NC(=O)[C@H](CCCNC(=N)N)NC1=O)Cc1ccc(O)cc1)C[C@@H]1C[C@@H]2c3cccc4[nH]cc(c34)C[C@H]2N(C)C1` (single isomer, unassigned) [Compound 28A, 3-[N-acetyl-N-(D-6-methyl-8β-ergolinylmethyl)]-aminopropionyl-psi(CH2NH)-Tyr-psi(CH2NH)-cyclo(DLys-Arg-Phe-Phe-DTrp-Lys-Thr-4FPhe)], for which, in experiment [1], the EC50 was determined as 14.9 ± 6.3 nM and the Emax worked out at 109 ± 20%. In experiment [2], this compound registered an EC50 of 65.5 ± 3.6 nM.

With `C[C@@H](O)[C@@H]1NC(=O)[C@H](CCCCN)NC(=O)[C@@H](Cc2c[nH]c3ccccc23)NC(=O)[C@H](Cc2ccccc2)NC(=O)[C@H](Cc2ccccc2)NC(=O)[C@H](CCCNC(=N)N)NC(=O)[C@H](NC[C@H](Cc2ccc(O)cc2)NC(=O)CCN(C[C@@H]2C[C@@H]3c4cccc5[nH]cc(c45)C[C@H]3N(C)C2)S(C)(=O)=O)CCCCNC(=O)[C@H](Cc2ccc(F)cc2)NC1=O` [Compound 42, [N-(D-6-methyl-8β-ergolinylmethyl)-N-(methylsulfonyl)]-aminopropionyl-Tyr-psi(CH2NH)-cyclo(DLys-Arg-Phe-Phe-DTrp-Lys-Thr-4FPhe)], the Emax stood at 78.6 ± 2.3% in experiment [1] and 94.5 ± 0.3% in experiment [2].

For `C[C@@H](O)[C@@H]1NC(=O)[C@H](CCCCN)NC(=O)[C@@H](Cc2c[nH]c3ccccc23)NC(=O)[C@H](Cc2ccccc2)NC(=O)[C@H](Cc2ccccc2)NC(=O)[C@H](CCCNC(=N)N)NC(=O)[C@H](NC[C@H](CCCCNC(=O)CSC[C@@H]2C[C@@H]3c4cccc5[nH]cc(c45)C[C@H]3N(C)C2)NC(=O)CSC[C@@H]2C[C@@H]3c4cccc5[nH]cc(c45)C[C@H]3N(C)C2)CCCCNC(=O)[C@H](Cc2ccc(F)cc2)NC1=O` [Compound 47, Dop1-Lys(Dop1)-psi(CH2NH)-cyclo(DLys-Arg-Phe-Phe-DTrp-Lys-Thr-4FPhe)], in experiment [1], the EC50 turned out to be 77.5 ± 19 nM and the Emax stood at 96.2 ± 5.9%. Further, the “improvement in % Emax over Reference Compound C” value (from here on “improvement in % Emax”) in experiment [1] (calcium mobilization) is “statistically significant improvement”. The compound further displayed an EC50 in experiment [2] of 46.6 ± 12.2 nM.

Take `C[C@@H](O)[C@@H]1NC(=O)[C@H](CCCCN)NC(=O)[C@@H](Cc2c[nH]c3ccccc23)NC(=O)[C@H](Cc2ccncc2)NC(=O)[C@H](Cc2ccccc2)NC(=O)[C@H](CCCNC(=N)N)NC(=O)[C@H](NCCSC[C@@H]2C[C@@H]3c4cccc5[nH]cc(c45)C[C@H]3N(C)C2)CCCCNC(=O)[C@H](Cc2ccc(O)cc2)NC1=O` [Compound 7, Dop1-psi(CH2NH)-cyclo(DLys-Arg-Phe-4Pal-DTrp-Lys-Thr-Tyr)]: in experiment [1], the “improvement in EC50 over Reference Compound A” value is on record as “statistically significant improvement” and the maximum response (Emax) is 96.9 ± 2.5%. In addition, in experiment [2], the Emax was found to be 102 ± 5%.

As for `C[C@@H](O)[C@@H]1NC(=O)[C@H](CCCCN)NC(=O)[C@@H](Cc2c[nH]c3ccccc23)NC(=O)[C@H](Cc2ccccc2)NC(=O)[C@H](Cc2ccccc2)NC(=O)[C@H](CCCNC(=N)N)NC(=O)[C@H](NC(=O)[C@H](CCCCNC(=O)CSC[C@@H]2C[C@@H]3c4cccc5[nH]cc(c45)C[C@H]3N(C)C2)NC(=O)CSC[C@@H]2C[C@@H]3c4cccc5[nH]cc(c45)C[C@H]3N(C)C2)CCNC(=O)[C@H](Cc2ccccc2)NC1=O` [Reference Compound C, Dop1-Lys(Dop1)-cyclo(DDab-Arg-Phe-Phe-DTrp-Lys-Thr-Phe), reference compound] (X2-K(X2)[dDab]RFF[dW]KTF; lactam 2-C), the EC50 in experiment [1] turned out to be 68.7 ± 40.8 nM; in experiment [2], 112 ± 39.2 nM.

In the case of `C[C@@H](O)[C@@H]1NC(=O)[C@H](CCCCN)NC(=O)[C@@H](Cc2c[nH]c3ccccc23)NC(=O)[C@H](Cc2ccccc2)NC(=O)[C@H](Cc2ccccc2)NC(=O)[C@H](CCCNC(=N)N)NC(=O)[C@H](NC(=O)[C@H](Cc2ccc(O)cc2)NC(=O)CSC[C@@H]2C[C@@H]3c4cccc5[nH]cc(c45)C[C@H]3N(C)C2)CCNC(=O)[C@H](Cc2ccccc2)NC1=O` [Reference Compound B, Dop1-Tyr-cyclo(DDab-Arg-Phe-Phe-DTrp-Lys-Thr-Phe), reference compound] (X2-Y[dDab]RFF[dW]KTF; lactam 2-C), the values for the Emax in experiment [1] and in experiment [2] were 66.7 ± 5.8% and 92.8 ± 6.6%, respectively.

As for `C[C@@H](O)[C@@H]1NC(=O)[C@H](CCCCN)NC(=O)[C@@H](Cc2c[nH]c3ccccc23)NC(=O)[C@H](Cc2ccncc2)NC(=O)[C@H](Cc2ccccc2)NC(=O)[C@H](CCCNC(=N)N)NC(=O)[C@H](NC[C@H](CCCCNC(=O)CSC[C@@H]2C[C@@H]3c4cccc5[nH]cc(c45)C[C@H]3N(C)C2)NC(=O)CSC[C@@H]2C[C@@H]3c4cccc5[nH]cc(c45)C[C@H]3N(C)C2)CCCCNC(=O)[C@H](Cc2ccccc2)NC1=O` [Compound 9, Dop1-Lys(Dop1)-psi(CH2NH)-cyclo(DLys-Arg-Phe-4Pal-DTrp-Lys-Thr-Phe)], the values for the concentration for a half-maximal effect (EC50) in experiment [1] and in experiment [2] were 22.2 ± 5.5 nM and 15.5 ± 3.7 nM, respectively. For the same compound, the “improvement in % Emax” value in experiment [1] (calcium mobilization) was “statistically significant improvement”. The Emax in experiment [1] was 98.4 ± 1.6%.

For `C[C@@H](O)[C@@H]1NC(=O)[C@H](CCCCN)NC(=O)[C@@H](Cc2c[nH]c3ccccc23)NC(=O)[C@H](Cc2ccccc2)NC(=O)[C@H](Cc2ccccc2)NC(=O)[C@H](CCCNC(=N)N)NC(=O)[C@H](NC(=O)CSC[C@@H]2C[C@@H]3c4cccc5[nH]cc(c45)C[C@H]3N(C)C2)CCNC(=O)[C@H](Cc2ccccc2)NC1=O` [Reference Compound A, Dop1-cyclo(DDab-Arg-Phe-Phe-DTrp-Lys-Thr-Phe), reference compound] (X2-[dDab]RFF[dW]KTF; lactam 1-C), the Emax was determined as 86.2 ± 7% in experiment [1] and 59.7 ± 7% in experiment [2].

For the compound `C[C@@H](O)[C@@H]1NC(=O)[C@H](CCCCN)NC(=O)[C@@H](Cc2c[nH]c3ccccc23)NC(=O)[C@H](Cc2ccncc2)NC(=O)[C@H](Cc2ccccc2)NC(=O)[C@H](CCCNC(=N)N)NC(=O)[C@H](NCCS(=O)(=O)C[C@@H]2C[C@@H]3c4cccc5[nH]cc(c45)C[C@H]3N(C)C2)CCCCNC(=O)[C@H](Cc2ccc(O)cc2)NC1=O` [Compound 20, Dop1(SO2)-psi(CH2NH)-cyclo(DLys-Arg-Phe-4Pal-DTrp-Lys-Thr-Tyr)], the EC50 in experiment [1] came to 0.7 ± 0.1 nM; in experiment [2] it was 7.4 ± 1.5 nM. The Emax in experiment [1] worked out at 100.2 ± 0.9%.

On to `C[C@@H](O)[C@@H]1NC(=O)[C@H](CCCCN)NC(=O)[C@@H](Cc2c[nH]c3ccccc23)NC(=O)[C@H](Cc2ccncc2)NC(=O)[C@H](Cc2ccccc2)NC(=O)[C@H](CCCNC(=N)N)NC(=O)[C@H](NC(=O)CSC[C@@H]2C[C@@H]3c4cccc5[nH]cc(c45)C[C@H]3N(C)C2)CCCCNC(=O)[C@H](Cc2ccccc2)NC1=O` [Compound 24, Dop1-cyclo(DLys-Arg-Phe-4Pal-DTrp-Lys-Thr-Phe)] (X2-[dK]RF[4Pal][dW]KTF; lactam 1-C), for which the “improvement in EC50 over Reference Compound A” value in experiment [1] was “statistically significant improvement”. In addition, the “EC50 value lower than that for Reference Compound A” value in experiment [1] (calcium mobilization, Tables IV and VI) is “about 9 fold”. In experiment [2], this compound showed an EC50 of 37.3 ± 6.4 nM.

On to `C[C@@H](O)[C@@H]1NC(=O)[C@H](CCCCN)NC(=O)[C@@H](Cc2c[nH]c3ccccc23)NC(=O)[C@H](Cc2ccccc2)NC(=O)[C@H](Cc2ccccc2)NC(=O)[C@H](CCCNC(=N)N)NC(=O)[C@H](NC(=O)[C@@H](Cc2ccc(O)cc2)NC(=O)CSC[C@@H]2C[C@@H]3c4cccc5[nH]cc(c45)C[C@H]3N(C)C2)CCCCNC(=O)[C@H](Cc2ccccc2)NC1=O` [Compound 37, Dop1-DTyr-cyclo(DLys-Arg-Phe-Phe-DTrp-Lys-Thr-Phe)] (X2-[dY][dK]RFF[dW]KTF; lactam 2-C), for which the Emax in experiment [1] amounted to 85.5 ± 6.7%; in experiment [2] it was 93.7 ± 4.3%.

Regarding `C[C@@H](O)[C@@H]1NC(=O)[C@H](CCCCN)NC(=O)[C@@H](Cc2c[nH]c3ccccc23)NC(=O)[C@H](Cc2ccccc2)NC(=O)[C@H](Cc2ccccc2)NC(=O)[C@H](CCCNC(=N)N)NC(=O)[C@H](NC[C@@H](Cc2ccc(O)cc2)NC(=O)CSC[C@@H]2C[C@@H]3c4cccc5[nH]cc(c45)C[C@H]3N(C)C2)CCCCNC(=O)[C@H](Cc2ccccc2)NC1=O` [Compound 41, Dop1-DTyr-psi(CH2NH)-cyclo(DLys-Arg-Phe-Phe-DTrp-Lys-Thr-Phe)], in experiment [1], the 50% effective concentration (EC50) came to 29.6 nM and the Emax is 104%. Also, the EC50 in experiment [2] was 62.6 nM.

In the case of `C[C@@H](O)[C@@H]1NC(=O)[C@H](CCCCN)NC(=O)[C@@H](Cc2c[nH]c3ccccc23)NC(=O)[C@H](Cc2ccncc2)NC(=O)[C@H](Cc2ccccc2)NC(=O)[C@H](CCCNC(=N)N)NC(=O)[C@H](NC[C@H](CCCCNC(=O)CSC[C@@H]2C[C@@H]3c4cccc5[nH]cc(c45)C[C@H]3N(C)C2)NC(=O)CSC[C@@H]2C[C@@H]3c4cccc5[nH]cc(c45)C[C@H]3N(C)C2)CCCCNC(=O)[C@H](Cc2ccc(O)cc2)NC1=O` [Compound 8, Dop1-Lys(Dop1)-psi(CH2NH)-cyclo(DLys-Arg-Phe-4Pal-DTrp-Lys-Thr-Tyr)], the EC50 in experiment [1] worked out at 29.8 ± 10.5 nM; in experiment [2], 18 ± 4.1 nM. In experiment [1] (calcium mobilization), the “improvement in % Emax” value is “statistically significant improvement”. In addition, the Emax in experiment [1] came out at 98.8 ± 2.6%.

On to `C[C@@H](O)[C@@H]1NC(=O)[C@H](CCCCN)NC(=O)[C@@H](Cc2c[nH]c3ccccc23)NC(=O)[C@H](Cc2ccccc2)NC(=O)[C@H](Cc2ccccc2)NC(=O)[C@H](CCCNC(=N)N)NC(=O)[C@H](NCCC[C@@H]2C[C@@H]3c4cccc5[nH]cc(c45)C[C@H]3N(C)C2)CCCCNC(=O)[C@H](Cc2ccc(F)cc2)NC1=O` [Compound 1, (D-6-methyl-8β-ergolinyl)-propionyl-psi(CH2NH)-cyclo(DLys-Arg-Phe-Phe-DTrp-Lys-Thr-4FPhe)], for which the Emax in experiment [1] came out at 98.7%; in experiment [2], 102.1 ± 0.4%.

The values above are taken from patent US8952128B2, “Somatostatin-dopamine chimeric analogs” (priority 2012, dated 2015).
